This note sets out measurements from ChEMBL document CHEMBL5370525, “Antibiotics with novel mode of action as new weapons to fight antimicrobial resistance” (Eur J Med Chem, 2023).

By MIC is commonly meant the least concentration at which growth counts as inhibited. A word on the IC50: it is the concentration needed to halve the response being measured. In general, bioavailability refers to dose-corrected exposure relative to a reference, in per cent. A high value points to much systemic uptake. Broadly, the MIC50 is the lowest concentration that inhibits either 50% of growth or 50% of the strains tested, depending on the study. Broadly, the MIC80 is an inhibitory concentration at the 80% level, which refers to growth in some studies and to a panel of isolates in others.

The subject of data set [1] is Staphylococcus aureus. Kind of data set: Antibacterial activity against Vancomycin-resistant Staphylococcus aureus clinical isolate assessed as inhibition of bacterial growth by CLSI-based broth microdilution method. The class given is functional.
Another data set concerns HeLa. The experiment in a line: Cytotoxicity against human HeLa cells assessed as inhibition of cell growth by MTT assay. The class given is functional, cell-based.
Data set [2] relates to Staphylococcus aureus. Kind of data set: Antibacterial activity against Vancomycin-intermediate Staphylococcus aureus clinical isolate assessed as inhibition of bacterial growth by CLSI-based broth microdilution method. In kind it is functional. A general note: Dilution methods test growth across graded concentrations, often in twofold steps.
Data set [3] is described as follows: Volume of distribution at steady state in BALB/c mouse at 24 mg/kg, iv by LC/MS-MS analysis. The class given is ADME, organism-based. Particulars: in vivo, read-out: Vdss.
The subject of data set [4] is Staphylococcus aureus. Kind of data set: Antibacterial activity against methicillin-resistant Staphylococcus aureus ATCC 33591 infected in mouse assessed as log reduction in bacterial CFU in thigh 120 mg/kg, po measured after 24 hrs. In kind it is functional.
Data set [5] is described as follows: Cytotoxicity against MDCK cells assessed as inhibition of cell growth by MTT assay. The class given is toxicity, cell-based, Canis lupus familiaris. As to conditions: dog.
For data set [6], the system named is Staphylococcus aureus. Kind of data set: Antibacterial activity against Daptomycin non-susceptible Staphylococcus aureus clinical isolate assessed as inhibition of bacterial growth by CLSI-based broth microdilution method. In kind it is functional.
Data set [7] deals with Staphylococcus aureus. The experiment in a line: Antibacterial activity against Linezolid non-susceptible Staphylococcus aureus clinical isolate assessed as inhibition of bacterial growth by CLSI-based broth microdilution method. The class given is functional.
Data set [8] can be described thus: Oral bioavailability in BALB/c mouse at 32 mg/kg by LC/MS-MS analysis. In kind it is ADME, organism-based. Particulars: in vivo.
For data set [9], the system named is Staphylococcus aureus. The experiment in a line: Antibacterial activity against Meticillin-Resistant Staphylococcus aureus clinical isolate assessed as inhibition of bacterial growth by CLSI-based broth microdilution method. In kind it is functional.
The subject of data set [10] is Clostridioides difficile. The experiment in a line: Antibacterial activity against Clostridium difficile clinical isolates assessed as inhibition of bacterial growth incubated for 48 hrs by CLSI-based assay. In kind it is functional.
In data set [11] the test system is Clostridioides difficile. Kind of data set: Antibacterial activity against Clostridium difficile clinical isolates assessed as inhibition of bacterial growth. The class given is functional.
For data set [12], the system named is Clostridioides difficile. The experiment in a line: Antibacterial activity against Clostridium difficile clinical isolates assessed as inhibition of bacterial growth incubated for 44 hrs by CLSI-based broth microdilution assay. The class given is functional.
Data set [13] in a line: Toxicity in Syrian hamster infected with clindamycin resistant Clostridium difficile ATCC 43596 assessed as survival rate at 5 mg/kg, po administered twice a day and measured after 33 days. As to conditions: in vivo, 792 h, time 33 day. The class given is organism-based, Mesocricetus auratus.
Data set [14] is described as follows: Toxicity in Syrian hamster infected with clindamycin resistant Clostridium difficile ATCC 43596 assessed as animal survival at 5 mg/kg, po administered twice a day and measured after 25 days. In kind it is organism-based, Mesocricetus auratus. As to conditions: in vivo, 600 h, time 25 day.
Data set [15] can be described thus: Toxicity in Syrian hamster infected with clindamycin resistant Clostridium difficile ATCC 43596 assessed as survival rate at 0.5 mg/kg, po administered twice a day and measured after 33 days. The class given is organism-based, Mesocricetus auratus. Particulars: in vivo, 792 h, time 33 day.
For data set [16], the system named is Staphylococcus aureus. Kind of data set: Antibacterial activity against Staphylococcus aureus assessed as inhibition of bacterial growth. The class given is functional.

The structures appear in SMILES notation. ≈ marks a conversion by molar mass, not a printed value.

For the compound `CN1CCC(C(=O)NC(=O)c2c(F)ccc(OCc3nc4cc(C(F)(F)F)cnc4s3)c2F)CC1`, the MIC in the data set on Staphylococcus aureus [1], with Staphylococcus aureus [2], in the data set on Staphylococcus aureus [6], with Staphylococcus aureus [7] and in the data set on Staphylococcus aureus [9] was 1 µg/mL (≈ 1.94 µM) in each case. Besides, the IC50 (with HeLa; in [5]) was more than 120 µg/mL throughout. Also, the Vd in [3] is 2.02 L/kg. Further, the “log(activity)” value in the data set on Staphylococcus aureus [4] is listed as 2. Further, in data set [8], the bioavailability came to 1%.

As to `CN[C@H](CC(C)C)C(=O)N[C@H]1C(=O)N[C@@H](CC(N)=O)C(=O)N[C@H]2C(=O)N[C@H]3C(=O)N[C@H](C(=O)N[C@H](C(=O)O)c4cc(O)cc(O)c4-c4cc3ccc4O)[C@H](O)c3ccc(c(Cl)c3)Oc3cc2cc(c3O[C@@H]2O[C@H](CO)[C@@H](O)[C@H](O)[C@H]2O[C@H]2C[C@](C)(N)[C@H](O)[C@H](C)O2)Oc2ccc(cc2Cl)[C@H]1O` [VANCOMYCIN], the MIC50 with Clostridioides difficile [10] stood at 1 µg/mL (≈ 0.69 µM). Besides, the MIC in the data set with Clostridioides difficile [11] and in the data set with Clostridioides difficile [12] was 0.25 µg/mL (≈ 0.173 µM) in each case.

As to `Cl.Cl.O=c1cc(NCCCN[C@@H]2CCOc3c(Br)cc(Br)cc32)[nH]c2ccsc12`, the Survival in [13] came to 75%; in data set [15], 62%. Also, the Activity result in data set [14] was “Toxic”.

As for `Cc1ncc([N+](=O)[O-])n1CCO` [METRONIDAZOLE], in the data set on Clostridioides difficile [10], the MIC50 was 1 µg/mL (≈ 5.84 µM). Further, in the data set on Clostridioides difficile [11], the MIC is 0.15 µg/mL (≈ 0.876 µM).

Turning to `Cn1cc(NC(=O)c2cc(NC(=O)c3ccc(/C=C/c4cnc5ccccc5c4)cc3)cn2C)cc1C(=O)NCCN1CCOCC1` [MGB-BP-3], in the data set on Staphylococcus aureus [16], the MIC80 is less than 0.2 µM.
